Where two headings read alike, the source gives them in different places.
How the values were obtained:
DPP1 in HL-60 cells = DPP1 in HL-60 cells (Homo sapiens, UniProt P53634); experiment: DPP1 Cell IC50 assay; type: cell-based; design: host or cells: HL-60 cells; conditions: 60 min pre-incubation, H-Gly-Phe-AFC substrate, average of n runs
Experimental: Example 99. DPP1 Cell IC50 assay
HL-60 cells (ATCC; Manassas, VA) were maintained in RPMI-1640 supplemented with 20% heat-inactivated FBS and 1× Antibiotic Antimycotic (Cytiva; Marlborough, MA). Media was changed every three to four days and cells were not allowed to exceed 1×10^6 cells per mL. Prior to assay, cells were collected by centrifugation at 500 rcf for 3 minutes, resuspended in PBS and counted. Cells were diluted in PBS to a concentration of 5×10^5 live cells per mL and transferred to black 96-well plates for assay, 60 μL per well. Test articles were diluted in PBS plus 0.5% DMSO, and 20 μL was added to each assay well. Compound was allowed to pre-incubate with cells with gentle shaking at 100 rpm for 60 minutes at 37° C. in a cell culture incubator maintained at 5% CO2, after which 20 μL of 500 μM H-Gly-Phe-AFC substrate (MP Biomedicals; Solon, OH) was added to each well. Plates were returned to the incubator with shaking at 100 rpm for 30 minutes, after which fluorescence was measured at Excitation/Emission 400/505 nm. % Inhibition was calculated from RFU values compared to control cell wells that received only PBS plus 0.5% DMSO. IC50 values for each compound were calculated via the XLFit (IDBS Version 5.3.1.3) Add-On to Microsoft Excel using the four parameter fit equation y=(A+((B−A)/(1+((C/x)^D)))), which appears as equation number 205 (4 Parameter Logistic Model or Sigmoidal Dose-Response Model) in XLFit. IC50 was defined as the compound concentration at which 50% of enzyme activity was inhibited when compared to the no-compound control.

human DPP1 enzyme = human DPP1 enzyme (Homo sapiens, UniProt P53634); experiment: Human DPP1 Enzyme IC50 Assay; type: biochemical; design: was first proteolytically processed into its mature form using recombinant human cathepsin L; purchased R&D Systems
Experimental: Example 97. Human DPP1 Enzyme IC50 Assay
Recombinant human DPP1 enzyme (R&D Systems; Minneapolis, MN) was first proteolytically processed into its mature form using recombinant human cathepsin L (R&D Systems) in a buffer consisting of 20 mM citric acid pH 4.5, 150 mM NaCl, 1 mM EDTA and 10 mM DTT. Test articles were applied to activated human DPP1 enzyme in Assay Buffer (25 mM MES pH 6.0, 50 mM NaCl, 5 mM DTT) in a total reaction volume of 125 μL. 25 μL of compound in Assay Buffer plus 5% DMSO was first added to 50 μL of activated human DPP1 enzyme at a concentration of 1 ng/μL and allowed to pre-incubate for 10 minutes at 37° C. after which 50 μL of 1000 μM H-Gly-Arg-AMC substrate (Bachem; St. Torrance, CA) was added, giving final substrate concentration of 400 μM and a final DMSO concentration of 1%. Substrate cleavage was measured for 90 minutes at 37° C., with fluorescence at Excitation/Emission 350/450 nm measured every 5 minutes. DPP1 concentration was interpolated based on its activity relative to a standard curve of activated human recombinant DPP1 enzyme. IC50 values for each compound were calculated via the XLFit (IDBS Version 5.3.1.3) Add-On to Microsoft Excel using the four parameter fit equation y={A+[(B−A)]/[1+((C/x)^D)]}, which appears as equation number 205 (4 Parameter Logistic Model or Sigmoidal Dose-Response Model) in XLFit. Default constraints were used for each Parameter. IC50 was defined as the compound concentration at which 50% of enzyme activity was inhibited when compared to the no-compound control.

[1] = read-out: Avg. IC50 (DPP1 Cell IC50 value ranges)
[2] = activated recombinant human DPP1, 400 μM H-Gly-Arg-AMC, 10 minutes pre-incubation at 37° C., pH 6.0, average of n runs, read-out: Avg. IC50 (Human DPP1 enzyme IC50 value ranges)

human DPP1 enzyme, sequence (P53634 25-134 limits assumed): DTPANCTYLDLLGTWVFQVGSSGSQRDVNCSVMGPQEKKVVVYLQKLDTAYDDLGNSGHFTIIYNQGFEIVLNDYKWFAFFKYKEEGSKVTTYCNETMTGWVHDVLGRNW
human DPP1 enzyme, sequence (P53634 231-394 limits assumed): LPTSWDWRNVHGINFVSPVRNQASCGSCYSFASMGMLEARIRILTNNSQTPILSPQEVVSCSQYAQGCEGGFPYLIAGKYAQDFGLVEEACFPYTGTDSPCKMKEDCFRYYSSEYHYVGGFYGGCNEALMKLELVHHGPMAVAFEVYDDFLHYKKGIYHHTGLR
human DPP1 enzyme, sequence (P53634 395-463 limits assumed): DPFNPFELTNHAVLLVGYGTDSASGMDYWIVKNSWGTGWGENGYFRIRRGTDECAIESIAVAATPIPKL
DPP1 in HL-60 cells, sequence (P53634 25-463): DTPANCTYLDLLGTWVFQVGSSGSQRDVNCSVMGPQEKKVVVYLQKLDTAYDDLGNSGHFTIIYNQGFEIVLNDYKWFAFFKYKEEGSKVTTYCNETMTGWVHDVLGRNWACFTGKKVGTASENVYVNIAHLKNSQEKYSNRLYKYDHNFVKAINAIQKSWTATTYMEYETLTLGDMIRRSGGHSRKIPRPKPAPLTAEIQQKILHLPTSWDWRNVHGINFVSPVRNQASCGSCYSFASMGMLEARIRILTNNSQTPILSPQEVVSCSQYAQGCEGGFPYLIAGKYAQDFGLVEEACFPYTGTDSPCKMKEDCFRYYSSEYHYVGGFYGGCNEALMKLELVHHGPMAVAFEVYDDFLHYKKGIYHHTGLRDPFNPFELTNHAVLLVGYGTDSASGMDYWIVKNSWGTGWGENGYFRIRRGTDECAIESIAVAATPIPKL

SMILES	IC50 (DPP1 in HL-60 cells; [1]) [nM]	IC50 (human DPP1 enzyme; [2]) [nM]	IC50 (DPP1 in HL-60 cells; Avg. IC50 (DPP1 Cell IC50 value ranges)) [nM]	IC50 (human DPP1 enzyme) [nM]
CO[C@H]1CCO[C@H](C(=O)N[C@H](C#N)Cc2ccc(-c3ccc4c(n3)CCCN4)cc2F)CNC1 [Compound A49, (2S,6S)—N-[(1S)-1-cyano-2-[2-fluoro-4-(5,6,7,8-tetrahydro-1,5-naphthyridin-2-yl)phenyl]ethyl]-6-methoxy-1,4-oxazocane-2-carboxamide]	> 2.5	5 to 15	–	–
CO[C@H]1CCO[C@H](C(=O)NC(C#N)Cc2cc3cc(-c4cc5c(C)nc(C)cn5c4)ccc3s2)CNC1 (single isomer, unassigned) [Compound A46]	> 2.5	> 15	–	–
CO[C@H]1CCO[C@H](C(=O)N[C@H](C#N)Cc2ccc(-c3ccc4c(F)nn(C)c4c3)cc2F)CNC1 [Compound A165]	1 to 2.5	5 to 15	–	–
N#C[C@H](Cc1ccc(-c2ccc3c(c2)C2(CCNCC2)CC3=O)cc1)NC(=O)[C@@H]1CNCCCO1 [Compound 30, (2S)—N-[(1S)-1-cyano-2-(4-{3-oxo-2H-spiro[indene-1,4′-piperidin]-6-yl}phenyl)ethyl]-1,4-oxazepane-2-carboxamide]	> 2.5	5 to 15	–	–
CO[C@H]1CCO[C@H](C(=O)N[C@H](C#N)Cc2ccc(-c3ccc4oc(=O)n(C)c4c3)s2)CNC1 [Compound F3, (2S,6S)—N-[(1S)-1-cyano-2-[5-(3-methyl-2-oxo-1,3-benzoxazol-5-yl)thiophen-2-yl]ethyl]-6-methoxy-1,4-oxazocane-2-carboxamide]	> 2.5	> 15	–	–
N#C[C@H](Cc1ccc(-c2cc3n(c2)CCCNC3=O)cc1)NC(=O)[C@@H]1CNCCCO1 [Compound A12, (2S)—N-[(1S)-1-cyano-2-(4-{1-oxo-2H,3H,4H,5H-pyrrolo[1,2-a][1,4]diazepin-8-yl}phenyl)ethyl]-1,4-oxazepane-2-carboxamide]	> 2.5	> 15	–	–
COC1CNC[C@@H](C(=O)N[C@H](C#N)Cc2ccc(-c3ccc4c(F)nn(C)c4c3)cc2)OC1 (some centres unmarked) [Compound A158]	< 1	< 5	–	–
N#C[C@H](Cc1ccc(-c2cnc3c(c2)NCCC3)cc1)NC(=O)[C@@H]1CNCCCO1 [Compound A41, (2S)—N-[(1S)-1-cyano-2-[4-(5,6,7,8-tetrahydro-1,5-naphthyridin-3-yl)phenyl]ethyl]-1,4-oxazepane-2-carboxamide]	> 2.5	> 15	–	–
N#C[C@H](Cc1ccc(-c2cc3c(F)nccn3c2)cc1)NC(=O)[C@@H]1CNCCCO1 [Compound A66]	> 2.5	> 15	–	–
CCCCOCCn1c(=O)oc2ccc(-c3ccc(C[C@@H](C#N)NC(=O)[C@@H]4CNC[C@@H](OC)CCO4)cc3)cc21 [Compound F2, (2S,6S)—N-[(1S)-2-{4-[3-(2-butoxyethyl)-2-oxo-1,3-benzoxazol-5-yl]phenyl}-1-cyanoethyl]-6-methoxy-1,4-oxazocane-2-carboxamide]	> 2.5	> 15	–	–
N#C[C@H](Cc1ccc(-c2cc3ccncc3[nH]2)cc1)NC(=O)[C@@H]1CNCCCO1 [Compound A7, (2S)—N-[(1S)-1-cyano-2-(4-{1H-pyrrolo[2,3-c]pyridin-2-yl}phenyl)ethyl]-1,4-oxazepane-2-carboxamide]	> 2.5	> 15	–	–
Cc1cn2cc(-c3cc4sc(C[C@@H](C#N)NC(=O)[C@@H]5CNCCCCO5)cc4s3)cc2c(C)n1 (single isomer, unassigned) [Compound A30]	> 2.5	> 15	–	–
N#Cc1ccc2c(c1)COc1c-2ccc(CC(C#N)NC(=O)[C@@H]2CNCCCO2)c1F (stereo partly drawn) [Compound B4, (2S)—N-(1-cyano-2-{8-cyano-4-fluoro-6H-benzo[c]chromen-3-yl}ethyl)-1,4-oxazepane-2-carboxamide]	–	–	> 2.5	> 15
C[C@@H]1NC[C@@H](C(=O)N[C@H](C#N)Cc2cnc(-c3ccc4c(F)nn(C)c4c3)s2)OC[C@@H]1O [Compound A171]	> 2.5	> 15	–	–
C[C@@H]1NC[C@@H](C(=O)N[C@H](C#N)Cc2ccc(-c3ccc4c(c3)CCC(=O)N4C)cc2F)OC[C@@H]1O [Compound A154]	1 to 2.5	5 to 15	–	–
CO[C@H]1CCO[C@H](C(=O)N[C@H](C#N)Cc2ccc(-c3ccc4c(c3)CCC(=O)N4C)cc2)CNC1 [Compound A147]	1 to 2.5	5 to 15	–	–
CN1C(=O)C2(CCN(C3COC3)CC2)c2cc(-c3ccc(C[C@@H](C#N)NC(=O)[C@@H]4CNCCCO4)cc3)ccc21 [Compound 29, (2S)—N-[(1S)-1-cyano-2-{4-[1-methyl-1′-(oxetan-3-yl)-2-oxospiro[indole-3,4′-piperidin]-5-yl]phenyl}ethyl]-1,4-oxazepane-2-carboxamide]	> 2.5	> 15	–	–
CO[C@@H]1CCNC[C@@H](C(=O)N[C@H](C#N)Cc2ccc(-c3ccc4c(c3)CCC(=O)N4C)cc2F)OC1 [Compound A151]	1 to 2.5	< 5	–	–
N#C[C@@H](Cc1cc2c(cc1F)-c1cc(C3COC3)c(F)cc1CO2)NC(=O)[C@@H]1CNCCCCO1 [Compound B10-A]	> 2.5	> 15	–	–
CN1C(=O)C2(CCN(C3CCOCC3)CC2)c2cc(-c3ccc(C[C@@H](C#N)NC(=O)[C@@H]4CNCCCO4)cc3)ccc21 [Compound 35]	> 2.5	> 15	–	–
Cc1sc(-c2ccc(C[C@@H](C#N)NC(=O)[C@@H]3CNCCCO3)cc2)nc1-c1cc[nH]c(=O)c1 [Compound D9, (2S)—N-[(1S)-1-cyano-2-{4-[5-methyl-4-(2-oxo-1H-pyridin-4-yl)-1,3-thiazol-2-yl]phenyl}ethyl]-1,4-oxazepane-2-carboxamide]	> 2.5	> 15	–	–
CN1C(=O)CCc2cc(-c3ccc(C[C@@H](C#N)NC(=O)[C@@H]4CNCC[C@@H](F)CO4)c(F)c3)ccc21 [Compound A155]	1 to 2.5	5 to 15	–	–
CO[C@@H]1CCNC[C@@H](C(=O)N[C@H](C#N)Cc2cc3cc(-c4cc5c(C)nc(C)cn5c4)ccc3s2)OC1 (single isomer, unassigned) [Compound A51]	1 to 2.5	5 to 15	–	–
N#C[C@H](Cc1ccc(-c2cnn([C@@H]3CCOC3)c2)cc1)NC(=O)[C@@H]1CNCCCO1 [Compound D4, (2S)—N-[(1S)-1-cyano-2-(4-{1-[(3R)-oxolan-3-yl]pyrazol-4-yl}phenyl)ethyl]-1,4-oxazepane-2-carboxamide]	> 2.5	> 15	–	–
CO[C@@H]1CCNC[C@@H](C(=O)N[C@H](C#N)Cc2cc3c(cc2F)-c2cc(C4COC4)c(F)cc2CO3)OC1 [Compound B12, (2S,7R)—N-{1-cyano-2-[2,8-difluoro-9-(oxetan-3-yl)-6H-benzo[c]chromen-3-yl]ethyl}-7-methoxy-1,4-oxazocane-2-carboxamide]	1 to 2.5	< 5	–	–
Cc1nc(C)c2cc(-c3ccc(C[C@@H](C#N)NC(=O)[C@@H]4CNCCCO4)cc3)cn2c1C [Compound A60]	> 2.5	> 15	–	–
N#C[C@H](Cc1ccc(-c2ccc3c(c2)[C@]2(CCCN(c4nccs4)C2)COC3)cc1)NC(=O)[C@@H]1CNCCCO1 [Compound I20]	> 2.5	> 15	–	–
Cn1nc(F)c2ccc(-c3ccc(C[C@@H](C#N)NC(=O)[C@@H]4CNCC[C@@H](F)CO4)cc3)cc21 [Compound A161]	> 2.5	> 15	–	–

Reference: patent US20260008760A1, “DIPEPTIDYL PEPTIDASE 1 INHIBITORS AND USES THEREOF” (Insmed Incorporated, priority 2024, published 2026)
